# Data published in BindingDB's records for doi:10.1021/jm800940u (Schering-Plough Research Institute, 2009).
# pKi: −log10 of the molar value.
# Target: Genome polyprotein (Hepatitis C virus genotype 1a (isolate H77), UniProt P27958)
# Experiment: Continuous Spectrophotometric Assay
# Description: Proteolytic cleavage of the ester linkage between the Nva (L-norvaline) and the chromophore (PAP) was monitored for change in absorbance at 370 nm. Initial velocities were determined using linear regression and kinetic constants were obtained by fitting the data to the Michaelis-Menten equation.
# Chain of Genome polyprotein (P27958 1027-1657 limits assumed): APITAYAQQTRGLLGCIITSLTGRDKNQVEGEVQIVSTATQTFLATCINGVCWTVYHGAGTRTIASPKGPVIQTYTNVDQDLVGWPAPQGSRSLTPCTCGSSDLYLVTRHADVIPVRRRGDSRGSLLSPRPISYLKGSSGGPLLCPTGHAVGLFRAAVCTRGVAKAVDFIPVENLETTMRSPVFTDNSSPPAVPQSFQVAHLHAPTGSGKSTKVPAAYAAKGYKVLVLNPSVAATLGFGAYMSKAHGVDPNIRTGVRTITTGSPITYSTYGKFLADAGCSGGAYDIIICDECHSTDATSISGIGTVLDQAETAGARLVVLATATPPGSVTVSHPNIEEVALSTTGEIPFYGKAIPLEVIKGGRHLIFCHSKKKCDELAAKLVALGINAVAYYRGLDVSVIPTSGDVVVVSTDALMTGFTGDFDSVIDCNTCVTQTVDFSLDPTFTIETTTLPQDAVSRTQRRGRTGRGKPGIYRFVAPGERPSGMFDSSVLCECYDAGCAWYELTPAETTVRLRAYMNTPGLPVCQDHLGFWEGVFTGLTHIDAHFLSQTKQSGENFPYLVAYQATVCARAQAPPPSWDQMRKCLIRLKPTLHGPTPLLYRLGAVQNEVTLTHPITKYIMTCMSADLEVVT
pKi,"pKi (pH 6.5, 30 °C)",SMILES
8.22,,"C=CCNC(=O)C(=O)[C@@H]1CCCCCCCCC[C@H](NC(=O)N[C@H](C(=O)C2CC2)C2CCCCC2)C(=O)N2C[C@H]3[C@@H]([C@H]2C(=O)N1)C3(C)C [2-[(3S,13S,16S,17R,19S)-3-({[(1S)-1-cyclohexyl-2-cyclopropyl-2-oxoethyl]carbamoyl}amino)-18,18-dimethyl-2,15-dioxo-1,14-diazatricyclo[14.4.0.0^{17,19}]icosan-13-yl]-2-oxo-N-(prop-2-en-1-yl)acetamide]"
8.15,,"C=CCNC(=O)C(=O)[C@@H]1CCCCCCCCC[C@H](NC(=O)N[C@H](CN2Cc3sccc3S2(=O)=O)C(C)(C)C)C(=O)N2C[C@H]3[C@@H]([C@H]2C(=O)N1)C3(C)C [2-[(3S,13S,16S,17R,19S)-3-({[(2S)-1-(1,1-dioxo-2H,3H-1,4,2-thieno[2,3-d][1,2]thiazol-2-yl)-3,3-dimethylbutan-2-yl]carbamoyl}amino)-18,18-dimethyl-2,15-dioxo-1,14-diazatricyclo[14.4.0.0^{17,19}]icosan-13-yl]-2-oxo-N-(prop-2-en-1-yl)acetamide]"
7.80,,"C=CCNC(=O)C(=O)[C@@H]1CCCCCCCCC[C@H](NC(=O)N[C@H](CN2C(=O)c3ccccc3C2=O)C(C)(C)C)C(=O)N2C[C@H]3[C@@H]([C@H]2C(=O)N1)C3(C)C [2-[(3S,13S,16S,17R,19S)-3-({[(2S)-1-(1,3-dioxo-2,3-dihydro-1H-isoindol-2-yl)-3,3-dimethylbutan-2-yl]carbamoyl}amino)-18,18-dimethyl-2,15-dioxo-1,14-diazatricyclo[14.4.0.0^{17,19}]icosan-13-yl]-2-oxo-N-(prop-2-en-1-yl)acetamide]"
8.70,,"C=CCNC(=O)C(=O)[C@@H]1CCCCCCCCC[C@H](NC(=O)N[C@H](CN2C(=O)CC(C)(C)CC2=O)C(C)(C)C)C(=O)N2C[C@H]3[C@@H]([C@H]2C(=O)N1)C3(C)C [2-[(3S,13S,16S,17R,19S)-3-({[(2S)-1-(4,4-dimethyl-2,6-dioxopiperidin-1-yl)-3,3-dimethylbutan-2-yl]carbamoyl}amino)-18,18-dimethyl-2,15-dioxo-1,14-diazatricyclo[14.4.0.0^{17,19}]icosan-13-yl]-2-oxo-N-(prop-2-en-1-yl)acetamide]"
8.70,,"C=CCNC(=O)C(=O)[C@@H]1CCCCCCCCC[C@H](NC(=O)N[C@H](CN2CCC(C)(C)CC2=O)C(C)(C)C)C(=O)N2C[C@H]3[C@@H]([C@H]2C(=O)N1)C3(C)C [2-[(3S,13S,16S,17R,19S)-3-({[(2S)-1-(4,4-dimethyl-2-oxopiperidin-1-yl)-3,3-dimethylbutan-2-yl]carbamoyl}amino)-18,18-dimethyl-2,15-dioxo-1,14-diazatricyclo[14.4.0.0^{17,19}]icosan-13-yl]-2-oxo-N-(prop-2-en-1-yl)acetamide]"
7.89,,"C=CCNC(=O)C(=O)[C@@H]1CCCCCCCCC[C@H](NC(=O)N[C@H](CN(C)S(=O)(=O)N(C)C)C(C)(C)C)C(=O)N2C[C@H]3[C@@H]([C@H]2C(=O)N1)C3(C)C [2-[(3S,13S,16S,17R,19S)-3-({[(2S)-1-[(dimethylsulfamoyl)(methyl)amino]-3,3-dimethylbutan-2-yl]carbamoyl}amino)-18,18-dimethyl-2,15-dioxo-1,14-diazatricyclo[14.4.0.0^{17,19}]icosan-13-yl]-2-oxo-N-(prop-2-en-1-yl)acetamide]"
8.52,,"C=CCNC(=O)C(=O)[C@@H]1CCCCCCCCC[C@H](NC(=O)N[C@H](CN(C)S(C)(=O)=O)C(C)(C)C)C(=O)N2C[C@H]3[C@@H]([C@H]2C(=O)N1)C3(C)C [2-[(3S,13S,16S,17R,19S)-3-({[(2S)-1-[methane(methyl)sulfonamido]-3,3-dimethylbutan-2-yl]carbamoyl}amino)-18,18-dimethyl-2,15-dioxo-1,14-diazatricyclo[14.4.0.0^{17,19}]icosan-13-yl]-2-oxo-N-(prop-2-en-1-yl)acetamide]"
,8.52,"CN(C[C@@H](NC(=O)N[C@H]1CCCCCCCCC[C@@H](C(=O)C(N)=O)NC(=O)[C@@H]2[C@@H]3[C@H](CN2C1=O)C3(C)C)C(C)(C)C)S(C)(=O)=O [2-[(3S,13S,16S,17R,19S)-3-({[(2S)-1-[methane(methyl)sulfonamido]-3,3-dimethylbutan-2-yl]carbamoyl}amino)-18,18-dimethyl-2,15-dioxo-1,14-diazatricyclo[14.4.0.0^{17,19}]icosan-13-yl]-2-oxoacetamide]"
,7.96,"CC(C)[C@H](NC(=O)N[C@H]1CCCCCCCCC[C@@H](C(=O)C(N)=O)NC(=O)[C@@H]2[C@@H]3[C@H](CN2C1=O)C3(C)C)C(=O)C1CC1 [2-[(3S,13S,16S,17R,19S)-3-({[(2S)-1-cyclopropyl-3-methyl-1-oxobutan-2-yl]carbamoyl}amino)-18,18-dimethyl-2,15-dioxo-1,14-diazatricyclo[14.4.0.0^{17,19}]icosan-13-yl]-2-oxoacetamide]"
8.52,,"C=CCNC(=O)C(=O)[C@@H]1CCCCCCCCC[C@H](NC(=O)N[C@H](CN2C(=O)C3CCC(C3)C2=O)C(C)(C)C)C(=O)N2C[C@H]3[C@@H]([C@H]2C(=O)N1)C3(C)C [2-[(3S,13S,16S,17R,19S)-3-({[(2S)-1-{2,4-dioxo-3-azabicyclo[3.2.1]octan-3-yl}-3,3-dimethylbutan-2-yl]carbamoyl}amino)-18,18-dimethyl-2,15-dioxo-1,14-diazatricyclo[14.4.0.0^{17,19}]icosan-13-yl]-2-oxo-N-(prop-2-en-1-yl)acetamide]"
8.40,,"C=CCNC(=O)C(=O)[C@@H]1CCCCCCCCC[C@H](NC(=O)N[C@H](CN2C(=O)CN(C)CC2=O)C(C)(C)C)C(=O)N2C[C@H]3[C@@H]([C@H]2C(=O)N1)C3(C)C [2-[(3S,13S,16S,17R,19S)-3-({[(2S)-3,3-dimethyl-1-(4-methyl-2,6-dioxopiperazin-1-yl)butan-2-yl]carbamoyl}amino)-18,18-dimethyl-2,15-dioxo-1,14-diazatricyclo[14.4.0.0^{17,19}]icosan-13-yl]-2-oxo-N-(prop-2-en-1-yl)acetamide]"
8.15,,"C=CCNC(=O)C(=O)[C@@H]1CCCCCCCCC[C@H](NC(=O)N[C@H](CN(C)S(=O)(=O)c2ccccn2)C(C)(C)C)C(=O)N2C[C@H]3[C@@H]([C@H]2C(=O)N1)C3(C)C [2-[(3S,13S,16S,17R,19S)-3-({[(2S)-3,3-dimethyl-1-[methyl(pyridine-2-)sulfonamido]butan-2-yl]carbamoyl}amino)-18,18-dimethyl-2,15-dioxo-1,14-diazatricyclo[14.4.0.0^{17,19}]icosan-13-yl]-2-oxo-N-(prop-2-en-1-yl)acetamide]"
,8.30,"C=CCNC(=O)C(=O)[C@@H]1CCCCCCCCC[C@H](NC(=O)N[C@H](CN(C)S(=O)(=O)c2cccs2)C(C)(C)C)C(=O)N2C[C@H]3[C@@H]([C@H]2C(=O)N1)C3(C)C [2-[(3S,13S,16S,17R,19S)-3-({[(2S)-3,3-dimethyl-1-[methyl(thiophene-2-)sulfonamido]butan-2-yl]carbamoyl}amino)-18,18-dimethyl-2,15-dioxo-1,14-diazatricyclo[14.4.0.0^{17,19}]icosan-13-yl]-2-oxo-N-(prop-2-en-1-yl)acetamide]"
,7.85,"CCCNC(=O)C(=O)[C@@H]1CCCCCCCCC[C@H](NC(=O)N[C@H](CN(C)S(=O)(=O)c2cccs2)C(C)(C)C)C(=O)N2C[C@H]3[C@@H]([C@H]2C(=O)N1)C3(C)C [2-[(3S,13S,16S,17R,19S)-3-({[(2S)-3,3-dimethyl-1-[methyl(thiophene-2-)sulfonamido]butan-2-yl]carbamoyl}amino)-18,18-dimethyl-2,15-dioxo-1,14-diazatricyclo[14.4.0.0^{17,19}]icosan-13-yl]-2-oxo-N-propylacetamide]"
,8.70,"CN(C[C@@H](NC(=O)N[C@H]1CCCCCCCCC[C@@H](C(=O)C(N)=O)NC(=O)[C@@H]2[C@@H]3[C@H](CN2C1=O)C3(C)C)C(C)(C)C)S(=O)(=O)c1cccs1 [2-[(3S,13S,16S,17R,19S)-3-({[(2S)-3,3-dimethyl-1-[methyl(thiophene-2-)sulfonamido]butan-2-yl]carbamoyl}amino)-18,18-dimethyl-2,15-dioxo-1,14-diazatricyclo[14.4.0.0^{17,19}]icosan-13-yl]-2-oxoacetamide]"
,8.00,"CCNC(=O)C(=O)[C@@H]1CCCCCCCCC[C@H](NC(=O)N[C@H](CN(C)S(=O)(=O)c2cccs2)C(C)(C)C)C(=O)N2C[C@H]3[C@@H]([C@H]2C(=O)N1)C3(C)C [2-[(3S,13S,16S,17R,19S)-3-({[(2S)-3,3-dimethyl-1-[methyl(thiophene-2-)sulfonamido]butan-2-yl]carbamoyl}amino)-18,18-dimethyl-2,15-dioxo-1,14-diazatricyclo[14.4.0.0^{17,19}]icosan-13-yl]-N-ethyl-2-oxoacetamide]"
,7.23,"CC(C)(C)NC(=O)N[C@H]1CCCCCCCCCC[C@@H](C(=O)C(N)=O)NC(=O)[C@@H]2[C@@H]3[C@H](CN2C1=O)C3(C)C [2-[(3S,14S,17S,18R,20S)-3-[(tert-butylcarbamoyl)amino]-19,19-dimethyl-2,16-dioxo-1,15-diazatricyclo[15.4.0.0^{18,20}]henicosan-14-yl]-2-oxoacetamide]"
,8.22,"CN(C)C(=O)[C@@H](NC(=O)CNC(=O)C(=O)[C@@H]1CCCCCCCCCC[C@H](NC(=O)NC(C)(C)C)C(=O)N2C[C@H]3[C@@H]([C@H]2C(=O)N1)C3(C)C)c1ccccc1 [2-[(3S,14S,17S,18R,20S)-3-[(tert-butylcarbamoyl)amino]-19,19-dimethyl-2,16-dioxo-1,15-diazatricyclo[15.4.0.0^{18,20}]henicosan-14-yl]-N-({[(S)-(dimethylcarbamoyl)(phenyl)methyl]carbamoyl}methyl)-2-oxoacetamide]"
,7.44,"CC1(NC(=O)N[C@H]2CCCCCCCCCC[C@@H](C(=O)C(N)=O)NC(=O)[C@@H]3[C@@H]4[C@H](CN3C2=O)C4(C)C)CCCCC1 [2-[(3S,14S,17S,18R,20S)-19,19-dimethyl-3-{[(1-methylcyclohexyl)carbamoyl]amino}-2,16-dioxo-1,15-diazatricyclo[15.4.0.0^{18,20}]henicosan-14-yl]-2-oxoacetamide]"
